# Data: patent US8222425B2, “Organic compounds and their uses” (Novartis AG, priority 2007, dated 2012)
# Like-named read-outs stand apart in the source and are kept apart here.
# Legend:
# Thermodynamic solubility = assay type: physicochemical; conditions: thermodynamic from solid
# Protocol: Thermodynamic solubility for the compounds of the invention listed in Table C is measured by a published literature procedure, e.g., Liping Zhou, et al., J. Pharm. Sci. (2007) 96(11): 3052-3071.
# The DMSO stocks of test compounds previously dissolved in 25 μL of DMSO (˜10 mM) in mini-prep vial (MPV: Whatman, with PVDF filter and 0.45 μm pore size) chamber were evaporated via a GeneVac HT-4X evaporator for approximately 1 hour, at the guard temperature of 30° C. An aliquot of 250 μL buffer solution (pH 1.0 or 6.8) was added into each MPV chamber containing powders reconstituted from DMSO stock solutions. The MPV filter plungers were pushed down into the chamber until the membrane of the filter plunger slightly touched the surface of the buffer to promote equilibrium between the two compartments and to minimize the adsorption due to non-specific binding of samples during the subsequent 24-hr incubation (at 600 RPM at room temperature). Immediately after the 24-hr incubation, the plungers were further pushed down to the bottom of the chambers. More solution was pushed through the membrane and entered the plunger compartment. The filter/chamber assemblies were then put on a shaker for another 30 minutes at 600 RPM. Afterwards, filtrates were further diluted (1:10) with 50/50 acetonitrile/water solvent followed by a thorough mixing process. Both plates with diluted and undiluted filtrates were analyzed by HPLC and quantified against the four-point standard dilution curve of the same test compound (5 μM, 35 μM, 65 μM and 100 μM, respectively). In the current study, solubility reflects the average of triplicate samples tested at each pH.
# [1] = Pharmacokinetic profile in rats; parameters: species or system Sprague Dawley rats; conditions: rat, in vivo; for Cmax: Sprague Dawley; for Cmax / AUC: po, 10 mg/kg
# Protocol: Compounds listed in Table D are administered as a solution orally via gavage at 10 mg/kg to Sprague Dawley rats at a dosing volume of 10 ml/kg. Samples are collected via a surgically implanted cannula at selected timepoints deemed necessary to characterize pharmacokinetic parameters. Blood samples are placed on wet ice and spun down to plasma within 5 minutes of timepoint collection. Plasma samples are frozen until bioanalytical analysis. Compounds listed in Table D are administered intravenously into a surgically implanted cannula as a solution at 1 mg/kg to Sprague Dawley rats at a dosing volume of 1 ml/kg. Samples are collected via another surgically implanted cannula at selected timepoints deemed necessary to characterize pharmacokinetic parameters. Blood samples are placed on wet ice and spun down to plasma within 5 minutes of timepoint collection. Plasma samples are frozen until bioanalytical analysis.
# HCV = conditions: ribavirin alone; cited from earlier work
SMILES,"solubility at 24 h (Thermodynamic solubility; pH 1, simulated gastric fluid) [µM]","solubility at 24 h (Thermodynamic solubility; pH 6.8, aqueous buffer) [µM]",Cmax [1] [nM],AUC [1] [nM·h/mg/kg],also measured
C=C[C@@H]1C[C@]1(NC(=O)[C@@H]1C[C@@]2(CN1C(=O)[C@@H](NC(=O)[C@@H](NC(=O)[C@@H]1CCCCN1C(C)C)C(C)(C)C)C(C)(C)C)C(C)(C)C21CCC1)C(=O)NS(=O)(=O)C1CC1 [Compound A-7],–,–,–,–,"solubility at 24 h (Thermodynamic solubility; aqueous buffer, thermodynamic solubility, buffer pH 6.8, 24-hr incubation at room temperature, read-out: Solubility (pH 6.8)): 840 µM; solubility at 24 h (Thermodynamic solubility; simulated gastric fluid, thermodynamic solubility, buffer pH 1.0, 24-hr incubation at room temperature, read-out: Solubility (pH 1)): 900 µM"
CCC[C@H](NC(=O)C1C[C@@]2(CN1C(=O)[C@@H](NC(=O)[C@@H](NC(=O)[C@@H]1CCCN1CC)C1CCCCC1)C(C)(C)C)C(C)(C)C21CCC1)C(=O)C(=O)NC1CC1 (stereo partly shown) [Compound A-10],910,24,1470,460,Bioavailability [1]: 46 % F
CCC[C@H](NC(=O)C1C[C@@]2(CN1C(=O)[C@@H](NC(=O)[C@@H](NC(=O)[C@H]1CCCN1CC)C1CCCCC1)C(C)(C)C)C(C)(C)C21CCC1)C(=O)C(=O)NC1CC1 (stereo partly shown) [Compound A-11],870,92,–,–,–
CCC[C@H](NC(=O)[C@@H]1C[C@@]2(CN1C(=O)[C@@H](NC(=O)[C@@H](NC(=O)[C@@H]1CN(C)CCN1C(C)C)C1CCCCC1)C(C)(C)C)C(C)(C)C21CCC1)C(=O)C(=O)NC1CC1 [Compound A-43],640,290,–,–,–
CCC[C@H](NC(=O)[C@@H]1C[C@@]2(CN1C(=O)[C@@H](NC(=O)[C@@H](NC(=O)[C@@H]1CCCCN1C(C)C)C(C)(C)C)C(C)(C)C)C(C)(C)C21CCC1)C(=O)C(=O)NC1CC1 [Compound A-44],690,64,1110,523,Bioavailability [1]: 43 % F
CCC[C@H](NC(=O)[C@@H]1C[C@@]2(CN1C(=O)[C@@H](NC(=O)[C@@H](NC(=O)[C@@H]1CCCCN1C(C)C)C(C)(C)C)C1CCCCC1)C(C)(C)C21CCC1)C(=O)C(=O)NC1CC1 [Compound A-45],720,< 5,–,–,–
CCC[C@H](NC(=O)[C@@H]1C[C@@]2(CN1C(=O)[C@@H](NC(=O)[C@@H](NC(=O)[C@@H]1CCCCN1C(C)C)C1CCCCC1)C(C)(C)C)C(C)(C)C21CCC1)C(=O)C(=O)NC(C)C [Compound A-54],790,28,1430,416,Bioavailability [1]: 28 % F
CCC[C@H](NC(=O)[C@@H]1C[C@@]2(CN1C(=O)[C@@H](NC(=O)[C@@H](NC(=O)[C@@H]1CCN1C(C)C)C1CCCCC1)C(C)(C)C)C(C)(C)C21CCC1)C(=O)C(=O)NC1CC1 [Compound A-62],930,< 5,796,241,Bioavailability [1]: 36 % F
CCCC(NC(=O)[C@@H]1C[C@@]2(CN1C(=O)[C@@H](NC(=O)[C@@H](NC(=O)C1CCN1C(C)(C)C)C1CCCCC1)C(C)(C)C)C(C)(C)C21CCC1)C(=O)C(=O)NC1CC1 (stereo partly shown) [Compound A-64],710,< 85,904,274,–
CCC[C@H](NC(=O)[C@@H]1C[C@@]2(CN1C(=O)[C@@H](NC(=O)[C@@H](NC(=O)[C@@H]1CCCN(C)C1)C(C)(C)C)C1CCCCC1)C(C)(C)C21CCC1)C(=O)C(=O)NC1CC1 [Compound A-66],840,600,–,–,–
"NC(=O)c1ncn([C@@H]2O[C@H](CO)[C@@H](O)[C@H]2O)n1 [Ribavirin, 1-β-D-ribofuranosyl-1-1,2,4-triazole-3-caroxamide]",–,–,–,–,patients in whom serum amino transferase levels are reduced to normal (HCV): 40%

# Second part, led by results:
"solubility at 24 h (Thermodynamic solubility; pH 1, simulated gastric fluid) [µM]","solubility at 24 h (Thermodynamic solubility; pH 6.8, aqueous buffer) [µM]",Cmax [1] [nM],AUC [1] [nM·h/mg/kg],SMILES,also measured
630,200,–,–,CCCC(NC(=O)[C@@H]1C[C@@]2(CN1C(=O)[C@@H](NC(=O)[C@@H](NC(=O)[C@@H]1CCCN(C(C)C)C1)C1CCCCC1)C(C)(C)C)C(C)(C)C21CCC1)C(=O)C(=O)NC1CC1 (stereo in doubt) [Compound A-4],–
480,44,–,–,CCC[C@H](NC(=O)[C@@H]1C[C@@]2(CN1C(=O)[C@@H](NC(=O)[C@@H](NC(=O)[C@H]1CCCCN1C(C)C)C1CCCCC1)C(C)(C)C)C(C)(C)C21CCC1)C(=O)C(=O)NC1CC1 [Compound A-5],–
930,< 5,–,–,CCC[C@H](NC(=O)[C@@H]1C[C@@]2(CN1C(=O)[C@@H](NC(=O)[C@@H](NC(=O)[C@@H]1CCCCN1C(C)C)C1CCCCC1)C(C)(C)C)C(C)(C)C21CCC1)C(=O)C(=O)NC1CC1 [Compound A-6],–
700,170,2030,474,CCC[C@H](NC(=O)[C@@H]1C[C@@]2(CN1C(=O)[C@@H](NC(=O)[C@@H](NC(=O)[C@@H]1CCCN(CC)C1)C1CCCCC1)C(C)(C)C)C(C)(C)C21CCC1)C(=O)C(=O)NC1CC1 [Compound A-15],Bioavailability [1]: 42 % F
790,110,–,–,CCC[C@H](NC(=O)[C@@H]1C[C@@]2(CN1C(=O)[C@@H](NC(=O)[C@@H](NC(=O)[C@@H]1CCCN1C)C1CCCCC1)C(C)(C)C)C(C)(C)C21CCC1)C(=O)C(=O)NC1CC1 [Compound A-33],–
830,240,–,–,CCC[C@H](NC(=O)[C@@H]1C[C@@]2(CN1C(=O)[C@@H](NC(=O)[C@@H](NC(=O)[C@@H]1CCCN(C)C1)C1CCCCC1)C(C)(C)C)C(C)(C)C21CCC1)C(=O)C(=O)NC1CC1 [Compound A-50],–
960,930,–,–,CCC[C@H](NC(=O)[C@@H]1C[C@@]2(CN1C(=O)[C@@H](NC(=O)[C@@H](NC(=O)[C@@H]1CCCN(C)C1)C(C)(C)C)C(C)(C)C)C(C)(C)C21CCC1)C(=O)C(=O)NC1CC1 [Compound A-58],–
840,550,653,203,CCC[C@H](NC(=O)[C@@H]1C[C@@]2(CN1C(=O)[C@@H](NC(=O)[C@@H](NC(=O)[C@H]1CCCN(CC)C1)C(C)(C)C)C(C)(C)C)C(C)(C)C21CCC1)C(=O)C(=O)NC1CC1 [Compound A-59],–
740,690,–,–,CCC[C@H](NC(=O)[C@@H]1C[C@@]2(CN1C(=O)[C@@H](NC(=O)[C@@H](NC(=O)[C@H]1CCCN(C)C1)C(C)(C)C)C1CCCCC1)C(C)(C)C21CCC1)C(=O)C(=O)NC1CC1 [Compound A-67],–
840,340,–,–,CCC[C@H](NC(=O)[C@@H]1C[C@@]2(CN1C(=O)[C@@H](NC(=O)[C@@H](NC(=O)[C@H]1CCCCN1CC)C(C)(C)C)C(C)(C)C)C(C)(C)C21CCC1)C(=O)C(=O)NC1CC1 [Compound A-72],–
810,< 5,–,–,CCC[C@H](NC(=O)[C@@H]1C[C@@]2(CN1C(=O)[C@@H](NC(=O)[C@@H](NC(=O)[C@@H]1CCN1C(C)C)C(C)(C)C)C(C)(C)C)C(C)(C)C21CCC1)C(=O)C(=O)NC1CC1 [Compound A-73],–
830,< 5,–,–,CCC[C@H](NC(=O)[C@@H]1C[C@@]2(CN1C(=O)[C@@H](NC(=O)[C@@H](NC(=O)[C@@H]1CCCCN1C(C)C)C(C)(C)C)C(C)(C)C)C(C)(C)C21CCC1)C(=O)C(=O)NC1CCC1 [Compound A-82],–
